± gives the standard deviation of the averaged measurements.
Key:
[1] = compound: CC(=O)NCC(=O)N1[C@@H]2CC[C@H]1c1ccc(Nc3ncc(C(F)(F)F)c(NC4CCC4)n3)cc12; assay: surviving fraction relative to DMSO-only wells; higher = less growth inhibition; conditions: exposure time: 5 days
In short: (§1)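 At 250–500 cells per well in 384-well plates, log-phase tumour cell lines were seeded and, 24 hours on, exposed continuously for five days to inhibitors at 0.5, 1, 5, 10, 50, 100, 500 and 1000 nM. Viability readout was CellTiter-Glo luminescence, reported as surviving fraction normalised to the median of DMSO-only wells.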

CELECOXIB = compound: Cc1ccc(-c2cc(C(F)(F)F)nn2-c2ccc(S(N)(=O)=O)cc2)cc1 [CELECOXIB]; assay: as above; conditions: exposure time: 5 days
In short: as §1

## OSHN BONE
[1]; 0.5 nM
  surviving fraction: 1.01 ± 0.028
[1]; 1 nM
  surviving fraction: 1 ± 0.029
[1]; 5 nM
  surviving fraction: 1 ± 0.025
[1]; 10 nM
  surviving fraction: 0.993 ± 0.05
[1]; 50 nM
  surviving fraction: 0.991 ± 0.02
[1]; 100 nM
  surviving fraction: 0.206 ± 0.0076
[1]; 500 nM
  surviving fraction: 0.407 ± 0.036
[1]; 1000 nM
  surviving fraction: 0.218 ± 0.011
CELECOXIB; 0.5 nM
  surviving fraction: 1.099 ± 0.0076
CELECOXIB; 1 nM
  surviving fraction: 1.091 ± 0.0078
CELECOXIB; 5 nM
  surviving fraction: 1.13 ± 0.018
CELECOXIB; 10 nM
  surviving fraction: 1.1 ± 0.019
CELECOXIB; 50 nM
  surviving fraction: 1.132 ± 0.0091
CELECOXIB; 100 nM
  surviving fraction: 1.15 ± 0.029
CELECOXIB; 500 nM
  surviving fraction: 1.15 ± 0.023
CELECOXIB; 1000 nM
  surviving fraction: 1.11 ± 0.015

## LM7 BONE
[1]; 0.5 nM
  surviving fraction: 0.965 ± 0.032
[1]; 1 nM
  surviving fraction: 0.951 ± 0.058
[1]; 5 nM
  surviving fraction: 1.04 ± 0.051
[1]; 10 nM
  surviving fraction: 1.02 ± 0.011
[1]; 50 nM
  surviving fraction: 0.921 ± 0.067
[1]; 100 nM
  surviving fraction: 0.642 ± 0.037
[1]; 500 nM
  surviving fraction: 0.25 ± 0.024
[1]; 1000 nM
  surviving fraction: 0.13 ± 0.007
CELECOXIB; 0.5 nM
  surviving fraction: 0.979 ± 0.059
CELECOXIB; 1 nM
  surviving fraction: 0.963 ± 0.023
CELECOXIB; 5 nM
  surviving fraction: 1.06 ± 0.05
CELECOXIB; 10 nM
  surviving fraction: 1.1 ± 0.086
CELECOXIB; 50 nM
  surviving fraction: 1.04 ± 0.038
CELECOXIB; 100 nM
  surviving fraction: 1.04 ± 0.023
CELECOXIB; 500 nM
  surviving fraction: 0.944 ± 0.044
CELECOXIB; 1000 nM
  surviving fraction: 1.02 ± 0.068

## SG28 HEADNECK
[1]; 0.5 nM
  surviving fraction: 1.06 ± 0.12
[1]; 1 nM
  surviving fraction: 1.03 ± 0.036
[1]; 5 nM
  surviving fraction: 0.972 ± 0.15
[1]; 10 nM
  surviving fraction: 0.991 ± 0.13
[1]; 50 nM
  surviving fraction: 0.949 ± 0.11
[1]; 100 nM
  surviving fraction: 0.828 ± 0.015
[1]; 500 nM
  surviving fraction: 0.682 ± 0.048
[1]; 1000 nM
  surviving fraction: 0.601 ± 0.075
CELECOXIB; 0.5 nM
  surviving fraction: 1.19 ± 0.26
CELECOXIB; 1 nM
  surviving fraction: 1.19 ± 0.04
CELECOXIB; 5 nM
  surviving fraction: 1.24 ± 0.099
CELECOXIB; 10 nM
  surviving fraction: 1.2 ± 0.13
CELECOXIB; 50 nM
  surviving fraction: 1.2 ± 0.18
CELECOXIB; 100 nM
  surviving fraction: 1.233 ± 0.0057
CELECOXIB; 500 nM
  surviving fraction: 1.16 ± 0.027
CELECOXIB; 1000 nM
  surviving fraction: 1.29 ± 0.059

## MG63 BONE
[1]; 0.5 nM
  surviving fraction: 0.974 ± 0.0053
[1]; 1 nM
  surviving fraction: 0.966 ± 0.015
[1]; 5 nM
  surviving fraction: 0.99 ± 0.024
[1]; 10 nM
  surviving fraction: 0.987 ± 0.013
[1]; 50 nM
  surviving fraction: 0.816 ± 0.003
[1]; 100 nM
  surviving fraction: 0.594 ± 0.021
[1]; 500 nM
  surviving fraction: 0.298 ± 0.021
[1]; 1000 nM
  surviving fraction: 0.227 ± 0.007
CELECOXIB; 0.5 nM
  surviving fraction: 1.04 ± 0.045
CELECOXIB; 1 nM
  surviving fraction: 1.04 ± 0.046
CELECOXIB; 5 nM
  surviving fraction: 1.09 ± 0.038
CELECOXIB; 10 nM
  surviving fraction: 1.08 ± 0.033
CELECOXIB; 50 nM
  surviving fraction: 1.09 ± 0.039
CELECOXIB; 100 nM
  surviving fraction: 1.12 ± 0.042
CELECOXIB; 500 nM
  surviving fraction: 1.1 ± 0.032
CELECOXIB; 1000 nM
  surviving fraction: 1.06 ± 0.044

## HT1080 SOFT TISSUE
[1]; 0.5 nM
  surviving fraction: 0.998 ± 0.035
[1]; 1 nM
  surviving fraction: 0.983 ± 0.011
[1]; 5 nM
  surviving fraction: 0.964 ± 0.05
[1]; 10 nM
  surviving fraction: 0.961 ± 0.031
[1]; 50 nM
  surviving fraction: 0.66 ± 0.0067
[1]; 100 nM
  surviving fraction: 0.404 ± 0.011
[1]; 500 nM
  surviving fraction: 0.303 ± 0.004
[1]; 1000 nM
  surviving fraction: 0.281 ± 0.0093
CELECOXIB; 0.5 nM
  surviving fraction: 1.039 ± 0.0011
CELECOXIB; 1 nM
  surviving fraction: 1.06 ± 0.011
CELECOXIB; 5 nM
  surviving fraction: 1.038 ± 0.0067
CELECOXIB; 10 nM
  surviving fraction: 1.05 ± 0.014
CELECOXIB; 50 nM
  surviving fraction: 0.995 ± 0.02
CELECOXIB; 100 nM
  surviving fraction: 1.011 ± 0.008
CELECOXIB; 500 nM
  surviving fraction: 1.02 ± 0.012
CELECOXIB; 1000 nM
  surviving fraction: 1 ± 0.021

## HMT3552 BREAST
[1]; 0.5 nM
  surviving fraction: 1.16
[1]; 1 nM
  surviving fraction: 1.06
[1]; 5 nM
  surviving fraction: 1.01
[1]; 10 nM
  surviving fraction: 0.934
[1]; 50 nM
  surviving fraction: 0.148
[1]; 100 nM
  surviving fraction: 0.47
[1]; 500 nM
  surviving fraction: 0.121
[1]; 1000 nM
  surviving fraction: 0.116
CELECOXIB; 0.5 nM
  surviving fraction: 1.07 ± 0.057
CELECOXIB; 1 nM
  surviving fraction: 1.07 ± 0.07
CELECOXIB; 5 nM
  surviving fraction: 1.09 ± 0.026
CELECOXIB; 10 nM
  surviving fraction: 1.11 ± 0.038
CELECOXIB; 50 nM
  surviving fraction: 1.16 ± 0.019
CELECOXIB; 100 nM
  surviving fraction: 1.18 ± 0.062
CELECOXIB; 500 nM
  surviving fraction: 1.19 ± 0.078
CELECOXIB; 1000 nM
  surviving fraction: 1.27 ± 0.041

## 93VU HEADNECK
[1]; 0.5 nM
  surviving fraction: 0.823 ± 0.059
[1]; 1 nM
  surviving fraction: 0.803 ± 0.035
[1]; 5 nM
  surviving fraction: 0.951 ± 0.029
[1]; 10 nM
  surviving fraction: 1 ± 0.061
[1]; 50 nM
  surviving fraction: 0.895 ± 0.055
[1]; 100 nM
  surviving fraction: 0.682 ± 0.0098
[1]; 500 nM
  surviving fraction: 0.331 ± 0.043
[1]; 1000 nM
  surviving fraction: 0.114 ± 0.021
CELECOXIB; 0.5 nM
  surviving fraction: 1.02 ± 0.064
CELECOXIB; 1 nM
  surviving fraction: 1.11 ± 0.076
CELECOXIB; 5 nM
  surviving fraction: 1.1 ± 0.043
CELECOXIB; 10 nM
  surviving fraction: 1.08 ± 0.16
CELECOXIB; 50 nM
  surviving fraction: 1.03 ± 0.083
CELECOXIB; 100 nM
  surviving fraction: 1.08 ± 0.15
CELECOXIB; 500 nM
  surviving fraction: 1.08 ± 0.052
CELECOXIB; 1000 nM
  surviving fraction: 1.07 ± 0.086

## S68 BREAST
[1]; 0.5 nM
  surviving fraction: 0.875 ± 0.16
[1]; 1 nM
  surviving fraction: 0.86 ± 0.083
[1]; 5 nM
  surviving fraction: 0.973 ± 0.18
[1]; 10 nM
  surviving fraction: 0.946 ± 0.11
[1]; 50 nM
  surviving fraction: 0.487 ± 0.057
[1]; 100 nM
  surviving fraction: 0.472 ± 0.024
[1]; 500 nM
  surviving fraction: 0.529 ± 0.081
[1]; 1000 nM
  surviving fraction: 0.466 ± 0.13
CELECOXIB; 0.5 nM
  surviving fraction: 1.18 ± 0.21
CELECOXIB; 1 nM
  surviving fraction: 1.07 ± 0.24
CELECOXIB; 5 nM
  surviving fraction: 1.26 ± 0.17
CELECOXIB; 10 nM
  surviving fraction: 1.19 ± 0.15
CELECOXIB; 50 nM
  surviving fraction: 1 ± 0.29
CELECOXIB; 100 nM
  surviving fraction: 1.21 ± 0.15
CELECOXIB; 500 nM
  surviving fraction: 0.95 ± 0.34
CELECOXIB; 1000 nM
  surviving fraction: 1.2 ± 0.11

## KPD BONE
[1]; 0.5 nM
  surviving fraction: 0.977 ± 0.019
[1]; 1 nM
  surviving fraction: 0.987 ± 0.026
[1]; 5 nM
  surviving fraction: 0.991 ± 0.07
[1]; 10 nM
  surviving fraction: 1.04 ± 0.093
[1]; 50 nM
  surviving fraction: 0.903 ± 0.003
[1]; 100 nM
  surviving fraction: 0.737 ± 0.033
[1]; 500 nM
  surviving fraction: 0.346 ± 0.009
[1]; 1000 nM
  surviving fraction: 0.124 ± 0.0044
CELECOXIB; 0.5 nM
  surviving fraction: 1.04 ± 0.1
CELECOXIB; 1 nM
  surviving fraction: 1.01 ± 0.054
CELECOXIB; 5 nM
  surviving fraction: 1.11 ± 0.065
CELECOXIB; 10 nM
  surviving fraction: 1.07 ± 0.029
CELECOXIB; 50 nM
  surviving fraction: 1.05 ± 0.04
CELECOXIB; 100 nM
  surviving fraction: 1.07 ± 0.12
CELECOXIB; 500 nM
  surviving fraction: 1.05 ± 0.012
CELECOXIB; 1000 nM
  surviving fraction: 0.934 ± 0.043

## SAOS2 BONE
[1]; 0.5 nM
  surviving fraction: 1.03 ± 0.017
[1]; 1 nM
  surviving fraction: 1.045 ± 0.0052
[1]; 5 nM
  surviving fraction: 1.08 ± 0.069
[1]; 10 nM
  surviving fraction: 1.06 ± 0.092
[1]; 50 nM
  surviving fraction: 1.03 ± 0.065
[1]; 100 nM
  surviving fraction: 0.704 ± 0.049
[1]; 500 nM
  surviving fraction: 0.157 ± 0.0075
[1]; 1000 nM
  surviving fraction: 0.0957 ± 0.0029
CELECOXIB; 0.5 nM
  surviving fraction: 1.14 ± 0.078
CELECOXIB; 1 nM
  surviving fraction: 1.05 ± 0.026
CELECOXIB; 5 nM
  surviving fraction: 1.187 ± 0.01
CELECOXIB; 10 nM
  surviving fraction: 1.14 ± 0.06
CELECOXIB; 50 nM
  surviving fraction: 1.22 ± 0.07
CELECOXIB; 100 nM
  surviving fraction: 1.23 ± 0.054
CELECOXIB; 500 nM
  surviving fraction: 1.11 ± 0.021
CELECOXIB; 1000 nM
  surviving fraction: 1.09 ± 0.018

## CME SYNOVIAL
[1]; 0.5 nM
  surviving fraction: 1.13 ± 0.079
[1]; 1 nM
  surviving fraction: 1.02 ± 0.17
[1]; 5 nM
  surviving fraction: 0.992 ± 0.16
[1]; 10 nM
  surviving fraction: 1.08 ± 0.066
[1]; 50 nM
  surviving fraction: 0.915 ± 0.032
[1]; 100 nM
  surviving fraction: 0.395 ± 0.036
[1]; 500 nM
  surviving fraction: 0.255 ± 0.02
[1]; 1000 nM
  surviving fraction: 0.33 ± 0.015
CELECOXIB; 0.5 nM
  surviving fraction: 1.4 ± 0.11
CELECOXIB; 1 nM
  surviving fraction: 1.45 ± 0.18
CELECOXIB; 5 nM
  surviving fraction: 1.37 ± 0.076
CELECOXIB; 10 nM
  surviving fraction: 1.34 ± 0.079
CELECOXIB; 50 nM
  surviving fraction: 1.47 ± 0.23
CELECOXIB; 100 nM
  surviving fraction: 1.41 ± 0.16
CELECOXIB; 500 nM
  surviving fraction: 1.38 ± 0.13
CELECOXIB; 1000 nM
  surviving fraction: 1.34 ± 0.076
